For data set [1] the following is noted: in vivo.
Data set [2] in a line: in vivo.
Data set [3] in a line: in vivo. The note with it: iv, 10 mg/kg.
The conditions of data set [4]: background; cited from earlier work.

Here are results for three compounds from patent US4835182A (priority 1987, dated 1989).

Like-named read-outs stand apart in the source and are kept apart here.

For `CC(C)(C)OC(=O)CCCc1ccc(N(CCCl)CCCl)cc1` [tertiary butyl chlorambucil], the “increase of brain/plasma concentration ratio of active drug versus chlorambucil” value in data set [1] came out at 4100%. Also, the Kp in “in vivo [2]” and in “in vivo [3]” was 0.7 in each case.

In the data set “in vivo [2]”, `N[C@@H](Cc1ccc(N(CCCl)CCCl)cc1)C(=O)O` [melphalan] returned a Kp of 0.1. In data set [4], the “entry into the brain” value is “only minimally enter the brain”.

In the case of `O=C(O)CCCc1ccc(N(CCCl)CCCl)cc1` [chlorambucil], the Kp in “in vivo [2]” was 0.02; in “in vivo [3]”, 0.017.
